Laboratory results taken from ChEMBL document CHEMBL1201862, “PubChem BioAssay data set” (2004).
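Values below derive from 48-hour exposures of cells grown in 96-well plates, with endpoints linearly interpolated between the two concentrations bracketing the appropriate inhibition level. GI50 = concentration required for 50% inhibition of growth.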 Calls of active or inactive are those of the source. Rule as the data show it: active = GI50 up to about 1.1 µM and inactive = higher.

Columns and labels:
Test in all cases: NCI-60 cell line screen, 48 h
[1] = test system: NCI-H460
[2] = test system: SNB-75
[3] = test system: K562
[4] = test system: LOX IMVI
[5] = test system: NCI-H226
[6] = test system: ACHN
[7] = test system: OVCAR-5
[8] = test system: 786-0
[9] = test system: UO-31
[10] = test system: SN12C
[11] = test system: A498
[12] = test system: NCI-H23
[13] = test system: TK-10
[14] = test system: SF-295
[15] = test system: SR
[16] = test system: M14

SMILES	GI50 [1]	GI50 [2]	GI50 [3]	GI50 [4]	GI50 [5]	GI50 [6]	GI50 [7]	GI50 [8]	GI50 [9]	GI50 [10]	GI50 [11]	GI50 [12]	GI50 [13]	GI50 [14]	GI50 [15]	GI50 [16]
Cc1nc(-n2nc(-c3ccccc3)cc2-c2ccccc2)sc1C(=O)/C=C/c1ccc(Cl)cc1	25.2 µM (inactive)	6.1 µM (inactive)	> 10 µM (inactive)	13.9 µM (inactive)	16 µM (inactive)	20.7 µM (inactive)	34.8 µM (inactive)	14.4 µM (inactive)	9.06 µM (inactive)	25.6 µM (inactive)	23.2 µM (inactive)	16.3 µM (inactive)	38.1 µM (inactive)	15.3 µM (inactive)	–	–
COc1cc2c(c(OC)c1OC)-c1ccc(SC)c(=O)cc1C(CO)C2 (stereo not given)	0.184 µM (active)	0.0326 µM (active)	0.0575 µM (active)	0.22 µM (active)	0.279 µM (active)	0.513 µM (active)	0.431 µM (active)	0.355 µM (active)	0.455 µM (active)	0.335 µM (active)	0.107 µM (active)	0.307 µM (active)	–	0.175 µM (active)	0.0203 µM (active)	0.103 µM (active)
CCCCCC1CC=CC(NC(=O)OCc2ccccc2)C1/C=C/CCCC1OCCO1 (stereo not given)	51.6 µM (inactive)	> 56 µM (inactive)	24.9 µM (inactive)	57.7 µM (inactive)	30.9 µM (inactive)	24.1 µM (inactive)	> 53.8 µM (inactive)	> 100 µM (inactive)	13.1 µM (inactive)	> 100 µM (inactive)	17.7 µM (inactive)	44.7 µM (inactive)	97.7 µM (inactive)	66.5 µM (inactive)	–	> 100 µM (inactive)
[N-]=[N+]=NC(c1cn(C2CC(O)C(CO)O2)c(=O)[nH]c1=O)C(I)I (stereo not given)	> 100 µM (inactive)	–	> 100 µM (inactive)	> 100 µM (inactive)	9.55 µM (inactive)	> 100 µM (inactive)	> 100 µM (inactive)	> 100 µM (inactive)	> 100 µM (inactive)	> 100 µM (inactive)	> 100 µM (inactive)	71 µM (inactive)	> 100 µM (inactive)	> 100 µM (inactive)	> 100 µM (inactive)	> 100 µM (inactive)
Cn1ncc(=S)[nH]c1=S	> 100 µM (inactive)	97.7 µM (inactive)	> 100 µM (inactive)	> 100 µM (inactive)	> 100 µM (inactive)	> 100 µM (inactive)	> 100 µM (inactive)	> 100 µM (inactive)	> 100 µM (inactive)	> 100 µM (inactive)	> 100 µM (inactive)	> 100 µM (inactive)	> 100 µM (inactive)	> 100 µM (inactive)	–	> 100 µM (inactive)
Cc1ccc(S(=O)(=O)NNS(C)(=O)=O)cc1	> 100 µM (inactive)	> 100 µM (inactive)	> 100 µM (inactive)	> 100 µM (inactive)	–	> 100 µM (inactive)	–	> 100 µM (inactive)	> 100 µM (inactive)	> 100 µM (inactive)	–	> 100 µM (inactive)	> 100 µM (inactive)	> 100 µM (inactive)	> 100 µM (inactive)	> 100 µM (inactive)
CCOc1ccccc1NC(=O)CCc1n[nH]c(=S)o1	–	> 100 µM (inactive)	> 100 µM (inactive)	> 100 µM (inactive)	> 100 µM (inactive)	> 100 µM (inactive)	–	> 100 µM (inactive)	63.4 µM (inactive)	> 100 µM (inactive)	–	> 100 µM (inactive)	> 100 µM (inactive)	> 100 µM (inactive)	> 100 µM (inactive)	> 100 µM (inactive)
Cc1cccc(-c2nnc(S)[nH]2)c1	> 100 µM (inactive)	> 100 µM (inactive)	> 100 µM (inactive)	–	> 100 µM (inactive)	> 100 µM (inactive)	> 100 µM (inactive)	> 100 µM (inactive)	> 100 µM (inactive)	> 100 µM (inactive)	> 100 µM (inactive)	> 100 µM (inactive)	> 100 µM (inactive)	> 100 µM (inactive)	> 100 µM (inactive)	> 100 µM (inactive)
Nc1nc(SCc2ccc([N+](=O)[O-])cc2)nc2c1ncn2C1OC(CO)C(O)C1O (stereo not given)	> 100 µM (inactive)	–	> 100 µM (inactive)	> 100 µM (inactive)	> 100 µM (inactive)	> 100 µM (inactive)	> 100 µM (inactive)	> 100 µM (inactive)	> 100 µM (inactive)	96.6 µM (inactive)	> 100 µM (inactive)	> 100 µM (inactive)	> 100 µM (inactive)	> 100 µM (inactive)	> 100 µM (inactive)	–
O=S1(=O)c2ccccc2N=C(c2ccccc2Cl)CC1c1ccc(F)cc1 (stereo not given)	18.5 µM (inactive)	25.5 µM (inactive)	7.62 µM (inactive)	16.7 µM (inactive)	–	18.4 µM (inactive)	15.7 µM (inactive)	16.6 µM (inactive)	15.2 µM (inactive)	15.2 µM (inactive)	17.5 µM (inactive)	17.1 µM (inactive)	22.5 µM (inactive)	18.2 µM (inactive)	–	19 µM (inactive)
CC(=O)OCC1OC(n2c(=S)n(-c3ccccc3)c(=O)c3cc(Br)ccc32)C(OC(C)=O)C(OC(C)=O)C1OC(C)=O (stereo not given)	> 100 µM (inactive)	–	> 100 µM (inactive)	> 100 µM (inactive)	> 100 µM (inactive)	> 100 µM (inactive)	> 100 µM (inactive)	> 100 µM (inactive)	> 100 µM (inactive)	> 100 µM (inactive)	> 100 µM (inactive)	> 100 µM (inactive)	–	–	–	> 100 µM (inactive)
Cc1noc(C)c1C1=CCCCc2ccccc21	> 100 µM (inactive)	23.4 µM (inactive)	31.4 µM (inactive)	–	–	87.9 µM (inactive)	> 100 µM (inactive)	> 100 µM (inactive)	> 100 µM (inactive)	> 100 µM (inactive)	–	> 100 µM (inactive)	–	> 100 µM (inactive)	16.6 µM (inactive)	79.6 µM (inactive)
CC1=Nn2c(nnc2-c2ccccc2Cl)NC(C)(C)C1	> 100 µM (inactive)	> 100 µM (inactive)	42.9 µM (inactive)	> 100 µM (inactive)	> 100 µM (inactive)	> 100 µM (inactive)	> 100 µM (inactive)	> 100 µM (inactive)	> 100 µM (inactive)	> 100 µM (inactive)	–	> 100 µM (inactive)	> 100 µM (inactive)	> 100 µM (inactive)	25.5 µM (inactive)	> 100 µM (inactive)
C=CC/C=C/C/C=C/CCCCCCCc1cccc(O)c1C(=O)O	36.1 µM (inactive)	43.4 µM (inactive)	33.3 µM (inactive)	44.7 µM (inactive)	–	44.2 µM (inactive)	> 100 µM (inactive)	> 100 µM (inactive)	25.2 µM (inactive)	–	–	29.6 µM (inactive)	54.7 µM (inactive)	> 100 µM (inactive)	> 100 µM (inactive)	82.8 µM (inactive)
